# Assay results: patent publication US20150087627A1, “COMBINATION OF KINASE INHIBITORS AND USES THEREOF” (Intellikine LLC, priority 2011, published 2015)
# Columns and labels:
# Type in all cases: biochemical
# [1] = molecular target: T1, PI3K α (p110α/p85α) (Homo sapiens, UniProt P42336); experiment: PI 3-Kinase (human) HTRF assay, PI3K α; conditions: read-out: PI3K α IC50
# T1 construct: purchased Upstate / Millipore Corporation
# [2] = molecular target: T2, PI3K β (p110β/p85α) (Homo sapiens, UniProt P42338); experiment: PI 3-Kinase (human) HTRF assay, PI3K β; conditions: read-out: PI3K β IC50
# T2 construct: purchased Upstate / Millipore Corporation
# T2 sequence (P42338 whole entry): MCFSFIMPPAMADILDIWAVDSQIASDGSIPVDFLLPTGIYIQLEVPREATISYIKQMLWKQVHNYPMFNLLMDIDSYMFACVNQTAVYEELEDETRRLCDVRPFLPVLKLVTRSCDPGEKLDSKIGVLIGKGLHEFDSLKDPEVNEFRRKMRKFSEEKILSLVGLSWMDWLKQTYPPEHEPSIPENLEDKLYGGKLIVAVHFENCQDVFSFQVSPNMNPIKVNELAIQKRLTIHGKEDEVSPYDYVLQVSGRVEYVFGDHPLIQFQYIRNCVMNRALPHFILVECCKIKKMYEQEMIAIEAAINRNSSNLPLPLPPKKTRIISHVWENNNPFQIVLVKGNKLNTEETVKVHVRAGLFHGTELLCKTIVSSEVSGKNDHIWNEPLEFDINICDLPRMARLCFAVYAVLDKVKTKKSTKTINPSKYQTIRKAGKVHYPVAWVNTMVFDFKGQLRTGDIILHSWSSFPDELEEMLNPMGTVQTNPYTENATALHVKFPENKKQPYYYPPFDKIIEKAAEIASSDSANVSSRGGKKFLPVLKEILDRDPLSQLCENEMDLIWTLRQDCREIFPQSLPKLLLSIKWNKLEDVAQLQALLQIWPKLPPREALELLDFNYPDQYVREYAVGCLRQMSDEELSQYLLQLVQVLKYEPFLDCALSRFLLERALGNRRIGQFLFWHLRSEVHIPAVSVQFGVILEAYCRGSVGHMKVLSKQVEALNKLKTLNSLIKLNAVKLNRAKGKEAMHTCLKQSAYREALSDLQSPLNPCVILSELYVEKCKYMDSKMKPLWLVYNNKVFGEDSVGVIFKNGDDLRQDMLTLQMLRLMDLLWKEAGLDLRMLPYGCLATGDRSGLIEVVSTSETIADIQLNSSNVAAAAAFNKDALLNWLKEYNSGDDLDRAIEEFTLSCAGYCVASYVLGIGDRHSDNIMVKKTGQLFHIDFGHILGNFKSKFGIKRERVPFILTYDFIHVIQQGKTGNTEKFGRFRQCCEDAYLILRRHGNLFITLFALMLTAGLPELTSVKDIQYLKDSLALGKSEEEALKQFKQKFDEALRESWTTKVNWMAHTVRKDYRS
# T2 sequence (P27986 whole entry partner): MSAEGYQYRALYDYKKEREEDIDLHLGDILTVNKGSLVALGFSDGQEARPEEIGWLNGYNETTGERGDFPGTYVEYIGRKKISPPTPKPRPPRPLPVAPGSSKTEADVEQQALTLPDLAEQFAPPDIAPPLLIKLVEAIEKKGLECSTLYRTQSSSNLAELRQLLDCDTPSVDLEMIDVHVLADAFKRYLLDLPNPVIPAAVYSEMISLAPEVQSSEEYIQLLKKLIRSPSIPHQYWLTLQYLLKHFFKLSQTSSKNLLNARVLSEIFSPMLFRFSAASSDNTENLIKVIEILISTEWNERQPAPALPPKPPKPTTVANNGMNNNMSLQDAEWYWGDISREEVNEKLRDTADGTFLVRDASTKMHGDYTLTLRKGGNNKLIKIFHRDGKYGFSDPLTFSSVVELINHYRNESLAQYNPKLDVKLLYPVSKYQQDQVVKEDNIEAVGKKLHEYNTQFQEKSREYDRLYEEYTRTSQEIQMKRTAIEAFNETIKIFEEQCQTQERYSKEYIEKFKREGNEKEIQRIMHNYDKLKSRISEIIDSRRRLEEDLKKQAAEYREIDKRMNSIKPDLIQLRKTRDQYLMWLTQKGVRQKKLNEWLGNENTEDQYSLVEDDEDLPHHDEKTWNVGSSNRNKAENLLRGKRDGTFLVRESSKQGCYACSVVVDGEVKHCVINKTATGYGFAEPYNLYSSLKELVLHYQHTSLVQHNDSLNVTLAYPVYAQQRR
# [3] = molecular target: T3, PI3K γ (p110γ) (Homo sapiens, UniProt P48736); experiment: PI 3-Kinase (human) HTRF assay, PI3K γ; conditions: read-out: PI3K γ IC50
# T3 construct: purchased Upstate / Millipore Corporation
# T3 sequence (P48736 whole entry): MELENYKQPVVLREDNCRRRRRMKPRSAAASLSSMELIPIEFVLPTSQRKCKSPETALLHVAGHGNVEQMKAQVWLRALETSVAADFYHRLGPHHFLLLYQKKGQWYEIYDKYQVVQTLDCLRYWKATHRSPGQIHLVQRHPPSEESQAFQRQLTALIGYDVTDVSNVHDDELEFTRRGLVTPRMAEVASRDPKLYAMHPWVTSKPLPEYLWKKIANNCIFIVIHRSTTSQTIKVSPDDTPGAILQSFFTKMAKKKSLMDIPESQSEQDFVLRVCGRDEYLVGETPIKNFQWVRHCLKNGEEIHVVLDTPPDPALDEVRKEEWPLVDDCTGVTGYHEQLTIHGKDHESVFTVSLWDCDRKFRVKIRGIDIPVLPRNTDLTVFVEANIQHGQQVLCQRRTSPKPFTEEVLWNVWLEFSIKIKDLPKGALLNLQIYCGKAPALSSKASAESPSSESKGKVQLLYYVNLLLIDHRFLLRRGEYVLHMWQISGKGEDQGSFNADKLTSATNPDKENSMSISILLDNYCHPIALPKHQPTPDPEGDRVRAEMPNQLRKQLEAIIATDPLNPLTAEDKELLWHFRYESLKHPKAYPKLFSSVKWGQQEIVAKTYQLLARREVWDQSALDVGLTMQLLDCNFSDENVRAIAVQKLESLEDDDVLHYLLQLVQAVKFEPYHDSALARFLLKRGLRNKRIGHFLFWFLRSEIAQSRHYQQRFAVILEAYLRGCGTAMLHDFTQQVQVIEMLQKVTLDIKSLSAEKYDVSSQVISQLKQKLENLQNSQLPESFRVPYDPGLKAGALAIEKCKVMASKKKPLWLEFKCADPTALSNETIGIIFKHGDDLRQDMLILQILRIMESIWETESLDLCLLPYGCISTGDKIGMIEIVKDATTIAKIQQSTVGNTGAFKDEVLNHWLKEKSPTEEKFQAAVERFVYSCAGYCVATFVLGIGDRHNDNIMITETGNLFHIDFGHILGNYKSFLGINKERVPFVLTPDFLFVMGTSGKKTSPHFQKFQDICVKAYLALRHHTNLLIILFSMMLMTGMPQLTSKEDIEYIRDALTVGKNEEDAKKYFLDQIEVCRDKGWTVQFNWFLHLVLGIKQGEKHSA
# [4] = molecular target: T4, PI3K δ (Homo sapiens, UniProt O00329); experiment: PI 3-Kinase (human) HTRF assay, PI3K δ; conditions: read-out: PI3K δ IC50
# T4 construct: purchased Upstate / Millipore Corporation
# T4 sequence (O00329 whole entry): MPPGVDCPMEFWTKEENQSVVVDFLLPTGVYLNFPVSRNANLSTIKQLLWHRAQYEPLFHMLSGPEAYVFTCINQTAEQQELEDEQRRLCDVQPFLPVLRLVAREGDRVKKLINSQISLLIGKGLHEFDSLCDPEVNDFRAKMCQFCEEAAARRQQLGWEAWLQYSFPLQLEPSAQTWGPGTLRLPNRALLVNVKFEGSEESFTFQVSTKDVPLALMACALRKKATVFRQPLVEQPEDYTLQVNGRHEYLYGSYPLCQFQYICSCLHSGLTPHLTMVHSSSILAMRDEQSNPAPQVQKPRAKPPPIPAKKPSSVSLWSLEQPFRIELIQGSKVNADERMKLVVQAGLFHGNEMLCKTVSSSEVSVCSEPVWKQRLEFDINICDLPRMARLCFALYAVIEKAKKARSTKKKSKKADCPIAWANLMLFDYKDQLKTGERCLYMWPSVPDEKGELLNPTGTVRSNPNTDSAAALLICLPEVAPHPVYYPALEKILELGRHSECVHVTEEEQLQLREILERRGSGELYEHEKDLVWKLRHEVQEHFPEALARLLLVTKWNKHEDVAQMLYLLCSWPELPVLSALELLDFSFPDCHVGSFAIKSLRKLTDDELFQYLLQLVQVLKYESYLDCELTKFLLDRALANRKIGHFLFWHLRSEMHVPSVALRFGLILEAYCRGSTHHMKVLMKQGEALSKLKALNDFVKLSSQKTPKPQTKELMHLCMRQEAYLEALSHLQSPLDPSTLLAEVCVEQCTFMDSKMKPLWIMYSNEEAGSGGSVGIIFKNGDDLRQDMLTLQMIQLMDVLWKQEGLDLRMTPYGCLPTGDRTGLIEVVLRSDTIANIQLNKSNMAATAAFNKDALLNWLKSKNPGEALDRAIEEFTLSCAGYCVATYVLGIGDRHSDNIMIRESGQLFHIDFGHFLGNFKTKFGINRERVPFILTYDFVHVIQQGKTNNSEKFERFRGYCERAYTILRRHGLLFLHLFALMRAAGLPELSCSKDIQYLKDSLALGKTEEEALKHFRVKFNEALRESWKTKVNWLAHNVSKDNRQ
# T4 sequence (P27986 whole entry partner): as the sequence (P27986 whole entry partner) above
# T1 sequence (P42336 whole entry): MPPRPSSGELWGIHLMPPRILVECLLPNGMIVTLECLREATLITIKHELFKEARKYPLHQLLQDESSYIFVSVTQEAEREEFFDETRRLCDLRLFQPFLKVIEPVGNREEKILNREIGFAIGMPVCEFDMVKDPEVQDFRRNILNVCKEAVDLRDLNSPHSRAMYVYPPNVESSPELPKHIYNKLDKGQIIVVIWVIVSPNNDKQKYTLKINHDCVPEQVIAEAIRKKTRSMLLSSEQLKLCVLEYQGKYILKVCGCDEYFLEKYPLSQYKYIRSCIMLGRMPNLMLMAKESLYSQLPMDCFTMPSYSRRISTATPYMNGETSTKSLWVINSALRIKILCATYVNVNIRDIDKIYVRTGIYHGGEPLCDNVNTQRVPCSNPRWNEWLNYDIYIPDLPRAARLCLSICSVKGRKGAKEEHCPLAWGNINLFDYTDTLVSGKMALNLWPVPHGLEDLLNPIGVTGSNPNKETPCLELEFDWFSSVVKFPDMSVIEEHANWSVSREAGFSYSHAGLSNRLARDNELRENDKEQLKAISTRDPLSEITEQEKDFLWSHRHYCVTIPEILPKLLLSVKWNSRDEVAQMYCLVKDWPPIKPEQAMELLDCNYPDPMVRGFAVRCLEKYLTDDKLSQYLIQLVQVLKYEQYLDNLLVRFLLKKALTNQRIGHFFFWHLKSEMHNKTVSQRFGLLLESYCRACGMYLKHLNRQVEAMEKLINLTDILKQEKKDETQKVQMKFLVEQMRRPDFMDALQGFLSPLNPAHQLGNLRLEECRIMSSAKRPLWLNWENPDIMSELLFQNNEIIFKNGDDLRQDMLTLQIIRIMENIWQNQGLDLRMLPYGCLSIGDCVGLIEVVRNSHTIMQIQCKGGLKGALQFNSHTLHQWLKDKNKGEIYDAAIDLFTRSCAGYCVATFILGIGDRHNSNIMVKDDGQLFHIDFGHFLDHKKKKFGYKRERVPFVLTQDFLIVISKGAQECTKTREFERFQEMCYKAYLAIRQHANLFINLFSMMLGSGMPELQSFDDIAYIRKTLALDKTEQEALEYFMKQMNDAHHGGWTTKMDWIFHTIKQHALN
# T1 sequence (P27986 whole entry partner): as the sequence (P27986 whole entry partner) above
SMILES,IC50 [1] [µM],IC50 [2] [µM],IC50 [3] [µM],IC50 [4] [µM]
Nc1nc2cc(-c3ccc4ncc(C(=O)NCCO)n4c3)ccc2o1 [Compound 189],< 0.1,< 1,< 1,< 1
CC(C)(C)N1CCN(C(=O)c2cnc3ccc(-c4ccc5oc(N)nc5c4)cn23)CC1 [Compound 191],< 0.1,< 10,< 10,< 10
NCC(=O)N1CCN(c2cnc3ccc(-c4ccc5oc(N)nc5c4)cc3n2)CC1 [Compound 192],< 0.1,< 1,< 1,< 1
COC(=O)N1CCN(c2cnc3ccc(-c4ccc5oc(N)nc5c4)cc3n2)CC1 [Compound 193],< 0.1,< 1,< 0.1,< 10
Cc1ccc(-c2cnc3ccc(-c4ccc5oc(N)nc5c4)cc3n2)cn1 [Compound 194],< 0.1,> 10,< 0.1,> 10
Nc1nc2cc(-c3ccc4ncc(-c5ccccn5)nc4c3)ccc2o1 [Compound 195],< 1,< 10,< 0.1,> 10
Nc1nc2cc(-c3ccc4ncc(C(=O)N5CCCCC5)n4c3)ccc2o1 [Compound 196],< 1,< 10,< 10,> 10
Nc1nc2cc(-c3ccc4ncc(C(=O)N5CCC5)n4c3)ccc2o1 [Compound 197],< 0.1,< 10,< 0.1,< 10
CS(=O)(=O)CCN1CCC(NC(=O)c2cnc3ccc(-c4ccc5oc(N)nc5c4)cn23)CC1 [Compound 199],< 0.1,< 10,< 0.1,< 0.1
Nc1nc2cc(-c3ccc4ncc(C(=O)N5CC(O)C5)n4c3)ccc2o1 [Compound 200],< 0.1,< 10,< 0.1,< 10
CC1CN(C(=O)c2cnc3ccc(-c4ccc5oc(N)nc5c4)cn23)CCO1 (centres unmarked) [Compound 201],< 0.1,< 10,< 10,> 10
CN1CCC(NC(=O)c2cnc3ccc(-c4ccc5oc(N)nc5c4)nn23)CC1 [Compound 203],< 0.1,< 0.1,< 0.1,< 1
Nc1nc2cc(-c3ccc4ncn(C5CCC5)c(=O)c4c3)ccc2o1 [Compound 205],< 0.1,> 10,> 10,> 10
CC(C)n1cnc2ccc(-c3ccc4oc(N)nc4c3)cc2c1=O [Compound 206],< 0.1,> 10,< 1,> 10
C[C@H](N)C(=O)N1CCN(c2cnc3ccc(-c4ccc5oc(N)nc5c4)cc3n2)CC1 [Compound 207],< 0.1,< 0.1,< 0.1,< 1
C[C@@H](N)C(=O)N1CCN(c2cnc3ccc(-c4ccc5oc(N)nc5c4)cc3n2)CC1 [Compound 208],< 0.1,< 1,< 10,< 1
Nc1nc2cc(-c3ccc4ncc(N5CCC(O)C5)nc4c3)ccc2o1 (centres unmarked) [Compound 209],< 0.1,< 1,< 0.1,< 10
Nc1ncc(-c2cnc3ccc(-c4ccc5oc(N)nc5c4)cc3n2)cn1 [Compound 210],< 1,> 10,> 10,> 10
CC(=O)N1CCC(Nc2ncnc3ccc(-c4ccc5oc(N)nc5c4)nc23)CC1 [Compound 211],< 0.1,< 0.1,< 0.1,< 0.1
CN1CCC(Nc2ncnc3ccc(-c4ccc5oc(N)nc5c4)nc23)CC1 [Compound 212],< 0.1,< 1,< 1,< 1
CNC(=O)C1CN(c2cnc3ccc(-c4ccc5oc(N)nc5c4)cc3n2)C1 [Compound 214],< 0.1,< 0.1,< 1,< 10
Nc1nc2cc(-c3ccc4ncc(N5CC(C(=O)NC6CC6)C5)nc4c3)ccc2o1 [Compound 215],< 0.1,< 1,< 1,< 10
CN(C)CC(=O)N1CCN(c2cnc3ccc(-c4ccc5oc(N)nc5c4)cc3n2)CC1 [Compound 217],< 0.1,< 1,< 1,< 1
CCN(CC)CCNc1cnc2ccc(-c3ccc4oc(N)nc4c3)cc2n1 [Compound 218],< 1,< 1,< 10,< 1
Nc1nc2cc(-c3ccc4ncc(NCCN5CCCC5)nc4c3)ccc2o1 [Compound 219],< 1,< 1,< 1,< 1
CCN(CC)CCCNc1cnc2ccc(-c3ccc4oc(N)nc4c3)cc2n1 [Compound 220],< 0.1,< 1,< 1,< 0.1
